Seven compounds from ChEMBL document CHEMBL1134025, “Thiosugars. Part 9: synthesis and biological evaluation of some 4'-thio-L-arabino nucleoside analogues” (2001) can be followed below.

SMILES strings stand for the structures. Values after ≈ are worked out from the molar mass of the structure shown.

The test system of the assay is Vaccinia virus. The assay is described as follows: Minimum inhibitory concentration required to reduce Vaccinia virus induced cytopathogenicity by 50%. The following applies: Orthopoxvirus vaccinia. Type of assay: functional. For orientation: Damage to the host cells serves as the signal in cytopathic effect assays.
For `Cc1cn([C@H]2S[C@@H](CO)[C@H](O)[C@H]2O)c(=O)[nH]c1=O`, the MIC is 400 µg/mL (≈ 1460 µM).

`O=c1ccn([C@H]2S[C@@H](CO)[C@H](O)[C@H]2O)c(=O)[nH]1` displayed an MIC of 400 µg/mL (≈ 1540 µM). As for `O=c1ccn([C@@H]2S[C@@H](CO)[C@H](O)[C@H]2O)c(=O)[nH]1`, the MIC amounted to 400 µg/mL (≈ 1540 µM). With `Nc1ccn(C2S[C@@H](CO)[C@H](O)[C@H]2O)c(=O)n1` (some centres not stated), the MIC worked out at 400 µg/mL (≈ 1540 µM). Consider `Nc1ncnc2c1ncn2[C@@H]1S[C@@H](CO)[C@H](O)[C@H]1O`, for which the MIC was 400 µg/mL (≈ 1410 µM). In turn, `Cc1cn([C@@H]2S[C@@H](CO)[C@H](O)[C@H]2O)c(=O)[nH]c1=O` yielded an MIC of 400 µg/mL (≈ 1460 µM). For the compound `Nc1ncnc2c1ncn2[C@H]1S[C@@H](CO)[C@H](O)[C@H]1O`, the MIC was found to be 400 µg/mL (≈ 1410 µM).
